Laboratory results taken from patent publication US20110070232A1, “Combination Therapy with an Antitumor Alkaloid” (Pharma Mar, S.A., priority 2008, published 2011).
Like-named read-outs stand apart in the source and are kept apart here.

Columns and labels:
Type in all cases: in vivo, mice
[1] = test system: CaLu-6 tumors
From the text: (§1) Female athymic nude mice (Harlan Sprague Dawley, Madison, Wis.) were utilized for all experiments. Animals were housed in ventilated rack caging with food and water ad libitum. The mice were acclimated for at least 5 days prior to tumor implantation.
The tumor model used in this study was CaLu-6 cell line which is a human lung cell line obtained from the ATCC (Manassas, Va.). […] Cells from in vitro passage 10 were those implanted SC into study mice.
Treatments were initiated on DPI 9.
(§2) Tumor size measurements were recorded 2-3 times/week from the treatment initiation until the termination of the study.
(§3) Mean, standard deviation and standard error of the mean were determined for tumor volume for all animal groups at all assessments. Student's t test was performed on tumor volumes at each measurement day, including at the end of the study, to determine whether there were any statistically significant differences between combination treatment groups and single monotherapy treatment groups.

[2] = test system: NCI-H460 tumors
From the text: as §1
The tumor model used in this study was NCI-H460 cell line which is a human lung cell line obtained from the ATCC (Manassas, Va.). […] Cells from in vitro passage 16 were those implanted SC into study mice.
Treatments were initiated on DPI 8.
as §2, §3

[3] = test system: H-Meso-1 tumors; conditions: G4 pemetrexed 100 mg/kg/day IP
Procedure: as §1
The tumor model used in this study was H-Meso-1 cell line which is a human mesothelioma cell line obtained from the DTP, DCTD tumor repository. […] Cells were implanted SC into study mice using a 1 ml syringe with a 13G trocar: 5×10^6 cells/mouse in 0.2 ml 50% Matrigel/50% RPMI medium of H-Meso-1 without serum or antibiotics. Bacterial culture was taken on cells used to implant the study.
Treatments were initiated on DPI 6.
as §2, §3

[4] = day 13, G3 pemetrexed 125 mg/kg/day IP
[5] = day 13, G4 pemetrexed 100 mg/kg/day IP
[6] = day 16, G3 pemetrexed 125 mg/kg/day IP
[7] = day 16, G4 pemetrexed 100 mg/kg/day IP
[8] = day 20, G3 pemetrexed 125 mg/kg/day IP
[9] = day 20, G4 pemetrexed 100 mg/kg/day IP
[10] = day 23, G3 pemetrexed 125 mg/kg/day IP
[11] = day 23, G4 pemetrexed 100 mg/kg/day IP

Nc1nc2[nH]cc(CCc3ccc(C(=O)N[C@@H](CCC(=O)O)C(=O)O)cc3)c2c(=O)[nH]1 [pemetrexed]
% T/C on day 9 ([1]; G3 pemetrexed 125 mg/kg/day IP): 99.6% | % T/C on day 16 ([1]; G3 pemetrexed 125 mg/kg/day IP): 86.6% | % T/C on day 20 ([1]; G3 pemetrexed 125 mg/kg/day IP): 104.8% | % T/C on day 23 ([1]; G3 pemetrexed 125 mg/kg/day IP): 98.7% | % T/C on day 27 ([1]; G3 pemetrexed 125 mg/kg/day IP): 87.9% | % T/C on day 30 ([1]; G3 pemetrexed 125 mg/kg/day IP): 90.0% | % T/C on day 34 ([1]; G3 pemetrexed 125 mg/kg/day IP): 89.1% | % T/C on day 42 ([1]; G3 pemetrexed 125 mg/kg/day IP): 94.2% | % T/C on day 9 ([1]; G4 pemetrexed 100 mg/kg/day IP): 103.4% | % T/C on day 13 ([1]; G4 pemetrexed 100 mg/kg/day IP): 126.5% | % T/C on day 16 ([1]; G4 pemetrexed 100 mg/kg/day IP): 103.5% | % T/C on day 20 ([1]; G4 pemetrexed 100 mg/kg/day IP): 120.6% | % T/C on day 23 ([1]; G4 pemetrexed 100 mg/kg/day IP): 111.5% | % T/C on day 27 ([1]; G4 pemetrexed 100 mg/kg/day IP): 101.8% | % T/C on day 30 ([1]; G4 pemetrexed 100 mg/kg/day IP): 105.8% | % T/C on day 34 ([1]; G4 pemetrexed 100 mg/kg/day IP): 102.2% | % T/C on day 42 ([1]; G4 pemetrexed 100 mg/kg/day IP): 100.5% | % Inhibition ([1]; day 9, G3 pemetrexed 125 mg/kg/day IP): 0.4% | % Inhibition ([1]; day 9, G4 pemetrexed 100 mg/kg/day IP): −3.4% | % Inhibition [1, 4]: −16.6% | % Inhibition [1, 5]: −26.5% | % Inhibition [1, 6]: 13.4% | % Inhibition [1, 7]: −3.5% | % Inhibition [1, 8]: −4.8% | % Inhibition [1, 9]: −20.6% | % Inhibition [1, 10]: 1.3% | % Inhibition [1, 11]: −11.5% | % Inhibition ([1]; day 27, G3 pemetrexed 125 mg/kg/day IP): 12.1% | % Inhibition ([1]; day 27, G4 pemetrexed 100 mg/kg/day IP): −1.8% | % Inhibition ([1]; day 30, G3 pemetrexed 125 mg/kg/day IP): 10.0% | % Inhibition ([1]; day 30, G4 pemetrexed 100 mg/kg/day IP): −5.8% | % Inhibition ([1]; day 34, G3 pemetrexed 125 mg/kg/day IP): 10.9% | % Inhibition ([1]; day 34, G4 pemetrexed 100 mg/kg/day IP): −2.2% | % Inhibition ([1]; day 42, G3 pemetrexed 125 mg/kg/day IP): 5.8% | % Inhibition ([1]; day 42, G4 pemetrexed 100 mg/kg/day IP): −0.5% | % T/C on day 8 ([2]; G3 pemetrexed 125 mg/kg/day IP): 102.6% | % T/C on day 10 ([2]; G3 pemetrexed 125 mg/kg/day IP): 119.0% | % T/C on day 13 ([2]; G3 pemetrexed 125 mg/kg/day IP): 67.5% | % T/C on day 16 ([2]; G3 pemetrexed 125 mg/kg/day IP): 71.0% | % T/C on day 20 ([2]; G3 pemetrexed 125 mg/kg/day IP): 70.4% | % T/C on day 23 ([2]; G3 pemetrexed 125 mg/kg/day IP): 85.4% | % T/C on day 28 ([2]; G3 pemetrexed 125 mg/kg/day IP): 72.9% | % T/C on day 31 ([2]; G3 pemetrexed 125 mg/kg/day IP): 82.6% | % T/C on day 8 ([2]; G4 pemetrexed 100 mg/kg/day IP): 103.0% | % T/C on day 10 ([2]; G4 pemetrexed 100 mg/kg/day IP): 107.3% | % T/C on day 13 ([2]; G4 pemetrexed 100 mg/kg/day IP): 75.7% | % T/C on day 16 ([2]; G4 pemetrexed 100 mg/kg/day IP): 72.4% | % T/C on day 20 ([2]; G4 pemetrexed 100 mg/kg/day IP): 72.9% | % T/C on day 23 ([2]; G4 pemetrexed 100 mg/kg/day IP): 86.3% | % T/C on day 28 ([2]; G4 pemetrexed 100 mg/kg/day IP): 76.8% | % T/C on day 31 ([2]; G4 pemetrexed 100 mg/kg/day IP): 96.9% | % Inhibition ([2]; day 8, G3 pemetrexed 125 mg/kg/day IP): −2.6% | % Inhibition ([2]; day 8, G4 pemetrexed 100 mg/kg/day IP): −3.0% | % Inhibition ([2]; day 10, G3 pemetrexed 125 mg/kg/day IP): −19.0% | % Inhibition ([2]; day 10, G4 pemetrexed 100 mg/kg/day IP): −7.3% | % Inhibition [2, 4]: 32.5% | % Inhibition [2, 5]: 24.3% | % Inhibition [2, 6]: 29.0% | % Inhibition [2, 7]: 27.6% | % Inhibition [2, 8]: 29.6% | % Inhibition [2, 9]: 27.1% | % Inhibition [2, 10]: 14.6% | % Inhibition [2, 11]: 13.7% | % Inhibition ([2]; day 28, G3 pemetrexed 125 mg/kg/day IP): 27.1% | % Inhibition ([2]; day 28, G4 pemetrexed 100 mg/kg/day IP): 23.2% | % Inhibition ([2]; day 31, G3 pemetrexed 125 mg/kg/day IP): 17.4% | % Inhibition ([2]; day 31, G4 pemetrexed 100 mg/kg/day IP): 3.1% | % T/C on day 6 [3]: 102.1% | % T/C on day 7 [3]: 100.2% | % T/C on day 9 [3]: 109.0% | % T/C on day 12 [3]: 105.7% | % T/C on day 14 [3]: 124.2% | % T/C on day 16 [3]: 128.6% | % T/C on day 19 [3]: 110.4% | % T/C on day 22 [3]: 100.8% | % T/C on day 26 [3]: 122.9% | % Inhibition ([3]; day 6): −2.1% | % Inhibition ([3]; day 7): −0.2% | % Inhibition ([3]; day 9): −9.0% | % Inhibition ([3]; day 12): −5.7% | % Inhibition ([3]; day 14): −24.2% | % Inhibition ([3]; day 16): −28.6% | % Inhibition ([3]; day 19): −10.4% | % Inhibition ([3]; day 22): −0.8% | % Inhibition ([3]; day 26): −22.9% | % Inhibition ([3]; day 29): −22.4%
